Source: patent publication US12077503B2, “Substituted cyclic amides and their use as herbicides” (FMC CORPORATION, priority 2015, dated 2024)

How the values were obtained:
Assay in all cases: Test G Post-Emergence Protocol
Format in all cases: in vivo
[1] = tested on: ivy-leaved morning glory (Ipomoea hederacea); settings: Ipomoea, post-emergence, 312 h; for pest or weed control at 15.625 g/ha: 15.625 g ai/ha, evaluated after 13 days (100=total damage to plant; 0=no damage to plant), read-out: Morningglory, Ivy-leaved damage rating; for pest or weed control at 62.5 g/ha: 62.5 g ai/ha, read-out: Morningglory, Ivy-leaved damage rating (100=total damage to plant; 0=no damage to plant); for pest or weed control at 62.5 g/ha / pest or weed control at 250 g/ha: evaluated after 13 days; for pest or weed control at 250 g/ha: 250 g ai/ha, read-out: damage to plant, Morningglory, Ivy-leaved (100=total damage to plant; 0=no damage to plant)
In short: (§1)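 Scores run 0 (no damage) to 100 (total damage) and were taken 13 days after spraying. Plants had been raised in pots for 8 days under glasshouse control (24/16 °C, 14 h photoperiod, 65% humidity) and then treated at 15.625, 62.5 or 250 g/ha.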

[2] = tested on: barnyardgrass (Echinochloa crus-galli); settings: Echinochloa crus-galli, post-emergence, 312 h; for pest or weed control at 15.625 g/ha: 15.625 g ai/ha, evaluated after 13 days (100=total damage to plant; 0=no damage to plant), read-out: Barnyardgrass damage rating; for pest or weed control at 62.5 g/ha: 62.5 g ai/ha, read-out: Barnyardgrass damage rating (100=total damage to plant; 0=no damage to plant); for pest or weed control at 62.5 g/ha / pest or weed control at 250 g/ha: evaluated after 13 days; for pest or weed control at 250 g/ha: 250 g ai/ha, read-out: damage to plant, Barnyardgrass (100=total damage to plant; 0=no damage to plant)
In short: as §1

[3] = tested on: giant foxtail (Setaria faberi); settings: Setaria faberi, post-emergence, 312 h; for pest or weed control at 15.625 g/ha: 15.625 g ai/ha, evaluated after 13 days (100=total damage to plant; 0=no damage to plant), read-out: Foxtail, Giant damage rating; for pest or weed control at 62.5 g/ha: 62.5 g ai/ha, read-out: Foxtail, Giant damage rating (100=total damage to plant; 0=no damage to plant); for pest or weed control at 62.5 g/ha / pest or weed control at 250 g/ha: evaluated after 13 days; for pest or weed control at 250 g/ha: 250 g ai/ha, read-out: damage to plant, Foxtail, Giant (100=total damage to plant; 0=no damage to plant)
In short: as §1

[4] = tested on: redroot pigweed (Amaranthus retroflexus); settings: Amaranthus retroflexus, post-emergence, 312 h; for pest or weed control at 15.625 g/ha: 15.625 g ai/ha, evaluated after 13 days (100=total damage to plant; 0=no damage to plant), read-out: Pigweed, Redroot damage rating; for pest or weed control at 62.5 g/ha: 62.5 g ai/ha, read-out: Pigweed, Redroot damage rating (100=total damage to plant; 0=no damage to plant); for pest or weed control at 62.5 g/ha / pest or weed control at 250 g/ha: evaluated after 13 days; for pest or weed control at 250 g/ha: 250 g ai/ha, read-out: damage to plant, Pigweed, Redroot (100=total damage to plant; 0=no damage to plant)
In short: as §1

[5] = tested on: velvetleaf (Abutilon theophrasti); settings: Abutilon theophrasti, post-emergence, 312 h; for pest or weed control at 15.625 g/ha: 15.625 g ai/ha, evaluated after 13 days (100=total damage to plant; 0=no damage to plant), read-out: Velvetleaf damage rating; for pest or weed control at 62.5 g/ha: 62.5 g ai/ha, read-out: Velvetleaf damage rating (100=total damage to plant; 0=no damage to plant); for pest or weed control at 62.5 g/ha / pest or weed control at 250 g/ha: evaluated after 13 days; for pest or weed control at 250 g/ha: 250 g ai/ha, read-out: damage to plant, Velvetleaf (100=total damage to plant; 0=no damage to plant)
In short: as §1

corn (Zea mays) = settings: Zea mays, post-emergence, 312 h; for plant injury at 15.625 g/ha: 15.625 g ai/ha, evaluated after 13 days (100=total damage to plant; 0=no damage to plant), read-out: Corn damage rating; for plant injury at 62.5 g/ha: 62.5 g ai/ha, read-out: Corn damage rating (100=total damage to plant; 0=no damage to plant); for plant injury at 62.5 g/ha / plant injury at 250 g/ha: evaluated after 13 days; for plant injury at 250 g/ha: 250 g ai/ha, read-out: damage to plant, Corn (100=total damage to plant; 0=no damage to plant)
In short: as §1

Row | SMILES | pest or weed control at 15.625 g/ha [1] | pest or weed control at 62.5 g/ha [1] | pest or weed control at 250 g/ha [1] | pest or weed control at 15.625 g/ha [2] | pest or weed control at 62.5 g/ha [2] | pest or weed control at 250 g/ha [2] | pest or weed control at 15.625 g/ha [3] | pest or weed control at 62.5 g/ha [3] | pest or weed control at 250 g/ha [3] | pest or weed control at 15.625 g/ha [4] | pest or weed control at 62.5 g/ha [4] | pest or weed control at 250 g/ha [4] | pest or weed control at 15.625 g/ha [5] | pest or weed control at 62.5 g/ha [5] | pest or weed control at 250 g/ha [5] | plant injury at 15.625 g/ha (corn (Zea mays)) | plant injury at 62.5 g/ha (corn (Zea mays)) | plant injury at 250 g/ha (corn (Zea mays))
1 | Cc1c(NC(=O)[C@@H]2C(=O)N(C)C[C@H]2c2ccc(C(F)(F)F)cc2)ccc(F)c1F (racemic) [Compound 1502] | 0% | 0% | 20% | 20% | 60% | 70% | 60% | 80% | 80% | 20% | 30% | 80% | 0% | 10% | 40% | 0% | 30% | 60%
2 | CN1C[C@@H](c2ccc(C(F)(F)F)cc2)[C@H](C(=O)Nc2cnccc2Cl)C1=O (racemic) [Compound 1541] | 0% | 0% | 10% | 0% | 0% | 20% | 0% | 0% | 50% | 0% | 0% | 20% | 0% | 0% | 0% | 0% | 0% | 10%
3 | Cc1cscc1NC(=O)[C@@H]1C(=O)N(C)C[C@H]1c1ccc(C(F)(F)F)cc1 (racemic) [Compound 1526] | 0% | 10% | 20% | 0% | 0% | 60% | 0% | 20% | 60% | 0% | 0% | 0% | 0% | 0% | 10% | 0% | 10% | 10%
4 | CN1C[C@H](c2ccc3c(c2)CCO3)[C@@H](C(=O)Nc2cccc(F)c2F)C1=O (racemic) [Compound 1499] | 20% | 0% | 40% | 50% | 60% | 60% | 60% | 60% | 70% | 0% | 0% | 0% | 0% | 0% | 20% | 10% | 0% | 80%
5 | Cc1ccncc1NC(=O)[C@@H]1C(=O)N(C)C[C@H]1c1ccc(C(F)(F)F)cc1 (racemic) [Compound 1505] | 0% | 0% | 10% | 0% | 0% | 20% | 0% | 0% | 30% | 0% | 0% | 0% | 0% | 0% | 0% | 0% | 10% | 10%
6 | CN1C[C@@H](c2ccc(C(F)(F)F)cc2)[C@H](C(=O)Nc2ncc(Br)cn2)C1=O (racemic) [Compound 1514] | 0% | 0% | 0% | 0% | 0% | 0% | 0% | 0% | 0% | 0% | 0% | 0% | 0% | 0% | 0% | 0% | 10% | 10%
7 | CN1C[C@@H](c2ccc(C(F)(F)F)cc2)[C@H](C(=O)Nc2ccc(C(F)(F)F)nc2Cl)C1=O (racemic) [Compound 1542] | 0% | 0% | 0% | 0% | 0% | 0% | 0% | 0% | 0% | 0% | 0% | 0% | 0% | 0% | 0% | 0% | 0% | 0%
8 | Cc1cc(NC(=O)[C@@H]2C(=O)N(C)C[C@H]2c2ccc(C(F)(F)F)cc2)n[nH]1 (racemic) [Compound 1532] | 0% | 0% | 0% | 0% | 0% | 0% | 0% | 0% | 0% | 0% | 0% | 0% | 0% | 0% | 0% | 0% | 0% | 0%
9 | CN1C[C@@H](c2ccc(C(F)(F)F)cc2)[C@H](C(=O)Nc2nc[nH]n2)C1=O (racemic) [Compound 1534] | 0% | 0% | 10% | 0% | 0% | 0% | 0% | 0% | 0% | 0% | 0% | 0% | 0% | 0% | 10% | 0% | 0% | 0%
